In patent US7495027B2, “3-aryl-4-hydroxyfuranone compounds and the human and animal health use thereof” (Wyeth, priority 2003, dated 2009):

Assays:
[1] = system: Trichostrongylus columbriformis; test: In vivo efficacy against T. colubriformis in infected gerbils; conditions: gerbils infected with T. colubriformis; single oral dose of 50 mg/kg by gavage; worm counts four days post-treatment; % mortality as compared to negative control
Method: In Vivo Evaluation of the Efficacy of Test Compounds Against T. colubriformis
In this evaluation, gerbils are infected with Trichostrongylus columbriformis infective larvae at a concentration of approximately 800 L3/mL. Larvae for gerbil infections are cultured from feces from sheep previously infected with T. colubriformis. One week post infection, test compounds are administered by gavage as a single oral dose of 50 mg/kg of body weight. For each group of 3 gerbils, 10 mg of test compound are dissolved in 2 mL of PEG 400:DMSO (1:2 v/v) and each animal is administered the test solution at a rate of 0.1 mL/10 g of body weight. […] All animals are observed daily for morbidity and mortality. Four days post-treatment, all animals are weighed and necropsied. Worm counts are conducted with the use of stereoscopes and counters.

[2] = system: larvae of blowfly, Lucilia sericata; test: whole plant or invertebrate; conditions: dose rate of 20 ppm, Lucilia sericata larvae on treated filter paper with bovine serum; for % Mortality 24 h: assessed at 24 h; for % Mortality 48 h: assessed at 48 h
Method: Comparative Evaluation of the Efficacy of a 3-Aryl-4-hydroxyfuranone Compound Against Blowfly Larvae
In this evaluation, filter paper discs are treated with an acetone solution of test compound and allowed to dry. Bovine serum and newly emerged larvae of blowfly, Lucilia sericata, are added to the treated filter paper. Mortality is assessed at 24 h and 48 h. When more than one evaluation is performed, the data are averaged.

Compound | Mortality [1] [%] | % Mortality 24 h [2] [%] | % Mortality 48 h [2] [%]
O=C1OC(=Cc2cnccc2-c2ccc(Cl)cc2)C(O)=C1c1ccc(OC(F)(F)F)cc1 (mixture of isomers) | 84.60 |  | 
O=C1OC(=Cc2cnccc2-c2ccc(Cl)s2)C(O)=C1c1ccc(OC(F)(F)F)cc1 (mixture of isomers) | 88.50 |  | 
CCc1ccc(C2=C(O)C(=Cc3cc(C(F)(F)F)ccc3Cl)OC2=O)cc1 | 39.00 |  | 
Cc1cc(/C=C2\OC(=O)C(c3cccc(Cl)c3)=C2O)ccc1-c1ccccc1C(F)(F)F | 11.20 |  | 
O=C1OC(=Cc2cnccc2-c2cccc(Cl)c2)C(O)=C1c1ccc(OC(F)(F)F)cc1 (mixture of isomers) | 66.80 |  | 
CCCOc1ccc(C=C2OC(=O)C(c3ccc(OC(F)(F)F)cc3)=C2O)cc1 (mixture of isomers) | 10.40 |  | 
O=C1O/C(=C\c2cc(C(F)(F)F)ccc2F)C(O)=C1c1cccc(-c2ccccc2)c1 [R=H; R1=3-biphenyl; R2=2-F-5-CF3—C6H4] | 38.40 |  | 
O=C1O/C(=C\c2ccc(-c3ccccc3F)cc2)C(O)=C1c1ccccc1F [R=H; R1=2-F—C6H4; R2=4-(2′F-biphenyl)] | 12.40 |  | 
O=C1O/C(=C\c2ccc(N3CCN(c4ccccc4Cl)CC3)c(Cl)c2)C(O)=C1c1cc(Cl)cc(Cl)c1 |  | 0 | 0
N#Cc1ccc(-c2ccc(C=C3OC(=O)C(c4cccc(C(F)(F)F)c4)=C3O)cc2)cc1 (mixture of isomers) |  | 0 | 0
N#Cc1ccc(-c2ccc(C=C3OC(=O)C(c4cccc(Cl)c4)=C3O)cc2)cc1 (mixture of isomers) |  | 0 | 0
O=C1O/C(=C\c2cc(C(F)(F)F)ccc2Cl)C(O)=C1c1ccc(-c2ccccc2)cc1 [R=H; R1=4-biphenyl; R2=2-Cl—5-CF3—C6H4] | 38.40 |  | 
N#Cc1ccc(C=C2OC(=O)C(c3cccc(Cl)c3)=C2O)cc1 (mixture of isomers) [R=H, R1=3-Cl—C6H4**, R2=4-CN—C6H4] |  | 0 | 0
N#Cc1ccc(C=C2OC(=O)C(c3ccc(Cl)cc3)=C2O)cc1 (mixture of isomers) [R=H, R1=4-Cl—C6H4**, R2=4-CN—C6H4] |  | 0 | 90
N#Cc1cccc(C2=C(O)C(=Cc3ccc(Cl)cc3)OC2=O)c1 (mixture of isomers) [R=H, R1=3-CN—C6H4**, R2=4-Cl—C6H4] |  | 0 | 0
COc1ccccc1-c1ccc(C=C2OC(=O)C(c3cccc(Cl)c3)=C2O)cc1C | 0.00 |  | 
O=C1OC(=Cc2cnccc2-c2ccc(OC(F)(F)F)cc2)C(O)=C1c1ccc(OC(F)(F)F)cc1 (mixture of isomers) | 82.60 |  | 
O=C1O/C(=C\c2cccc(C(F)(F)F)c2)C(O)=C1c1ccccc1 [R=H, R1=C6H5, R2=3-CF3—C6H4] |  | 0 | 0
N#Cc1ccc(C2=C(O)C(=Cc3ccc(Cl)cc3)OC2=O)cc1 (mixture of isomers) [R=H, R1=4-CN—C6H4**, R2=4-Cl—C6H4] |  | 25 | 100
N#Cc1ccc(-c2ccc(/C=C3\OC(=O)C(c4ccc(Cl)cc4)=C3O)cc2)cc1 [R=H, R1=4-Cl—C6H4*, R2=4-(4′-CN-biphenyl)] |  | 0 | 100
COC1=C(c2ccc(Cl)cc2)C(=O)OC1=Cc1ccc(C#N)cc1 (mixture of isomers) [R=CH3, R1=4-Cl—C6H4**, R2=4-CN—C6H4] |  | 0 | 0
COc1cc(/C=C2\OC(=O)C(c3cccc(Cl)c3)=C2O)ccc1-c1ccccc1Cl | 0.00 |  | 
N#Cc1ccc(C2=C(O)C(=Cc3ccc(-c4ccc(Cl)cc4)cc3)OC2=O)cc1 (mixture of isomers) |  | 0 | 100
O=C1OC(=Cc2ccc(-c3ccccc3CO)cc2)C(O)=C1c1ccccc1CO |  | 0 | 0
CC(C)(C)c1ccc(-c2ccc(C3=C(O)C(=Cc4ccc(-c5ccccc5)cc4)OC3=O)cc2)cc1 |  | 0 | 0
O=C1O/C(=C\c2cc(F)cc(C(F)(F)F)c2)C(O)=C1c1cccc(-c2ccccc2)c1 [R=H; R1=3-biphenyl; R2=3-F-5-CF3—C6H4] | 0.00 |  | 

Compound | Mortality [1] [%] | % Mortality 24 h [2] [%] | % Mortality 48 h [2] [%]
O=C1OC(=Cc2ccc(Cl)cc2)C(O)=C1c1ccc(F)cc1 (mixture of isomers) [R=H, R1=4-F—C6H4**, R2=4-Cl—C6H4] |  | 0 | 0
N#Cc1ccc(C2=C(O)C(=Cc3ccc(F)cc3)OC2=O)cc1 (mixture of isomers) [R=H, R1=4-CN—C6H4**, R2=4-F—C6H4] |  | 0 | 0
O=C1OC(=Cc2ccccc2C(F)(F)F)C(O)=C1c1ccc(Cl)cc1 (mixture of isomers) [R=H, R1=4-Cl—C6H4**, R2=2-CF3—C6H4] |  | 10 | 10
O=C1OC(=Cc2ccc(Cl)cc2)C(O)=C1c1cccc(Cl)c1 (mixture of isomers) [R=H, R1=3-Cl—C6H4**, R2=4-Cl—C6H4] |  | 0 | 0
N#Cc1ccc(-c2ccc(C=C3OC(=O)C(c4ccc(F)cc4)=C3O)cc2)cc1 (mixture of isomers) |  | 0 | 0
N#Cc1cccc(C2=C(O)C(=Cc3ccc(-c4ccc(Cl)cc4)cc3)OC2=O)c1 (mixture of isomers) |  | 0 | 0
O=C1O/C(=C\c2ccccc2)C(O)=C1c1ccccc1C(F)(F)F [R=H; R1=2-CF3—C6H4; R2=C6H5] | 34.60 |  | 
O=C1OC(=Cc2ccc(C(F)(F)F)cc2)C(O)=C1c1ccc(C(F)(F)F)cc1 (mixture of isomers) [R=H, R1=4-CF3—C6H4**, R2=4-CF3—C6H4] |  | 100 | 100
Cc1ccc(C2=C(O)/C(=C/c3cccc(C(F)(F)F)c3Cl)OC2=O)cc1C | 36.50 |  | 
O=C1OC(=Cc2ccc(C(F)(F)F)cc2)C(O)=C1c1ccc(Cl)cc1 (mixture of isomers) [R=H, R1=4-Cl—C6H4**, R2=4-CF3—C6H4] |  | 100 | 100
O=C1OC(=Cc2ccc(-c3ccc(C(F)(F)F)cc3)cc2)C(O)=C1c1ccc(Cl)cc1 (mixture of isomers) |  | 0 | 0
O=C1OC(=Cc2ccc(F)cc2)C(O)=C1c1ccc(F)cc1 (mixture of isomers) [R=H, R1=4-F—C6H4**, R2=4-F—C6H4] |  | 0 | 0
N#Cc1ccc(C=C2OC(=O)C(c3ccc(-c4ccc(Cl)cc4)cc3)=C2O)cc1 (mixture of isomers) |  | 0 | 0
Cc1cc(/C=C2\OC(=O)C(c3cccc(Cl)c3)=C2O)ccc1-c1ccccc1Cl | 16.90 |  | 
N#Cc1ccc(C2=C(O)C(=Cc3cccc(C(F)(F)F)c3)OC2=O)cc1 (mixture of isomers) [R=H, R1=4-CN—C6H4**, R2=3-CF3—C6H4] |  | 0 | 90
O=C1OC(=Cc2ccc(C(F)(F)F)cc2)C(O)=C1c1ccc(-c2ccc(Cl)cc2)cc1 (mixture of isomers) |  | 0 | 0
O=C1OC(=Cc2ccc(F)cc2)C(O)=C1c1ccc(C(F)(F)F)cc1 (mixture of isomers) [R=H, R1=4-CF3—C6H4**, R2=4-F—C6H4] |  | 100 | 100
N#Cc1ccc(-c2ccc(/C=C3\OC(=O)C(c4ccc(Cl)cc4)=C3O)cc2)cc1 [R=H, R1=4-Cl—C6H4, R2=4-(4′-CN-biphenyl)] |  | 0 | 0
O=C1OC(=Cc2cccc(Cl)c2)C(O)=C1c1ccc(Cl)cc1 (mixture of isomers) [R=H, R1=4-Cl—C6H4**, R2=3-Cl—C6H4] |  | 0 | 0
O=C1OC(=Cc2ccc(F)cc2)C(O)=C1c1cccc(C(F)(F)F)c1 (mixture of isomers) [R=H, R1=3-CF3—C6H4**, R2=4-F—C6H4] |  | 100 | 100
O=C1O/C(=C\c2ccc(-c3cccc(CO)c3)cc2)C(O)=C1c1cccc(CO)c1 |  | 0 | 0
O=C1OC(=Cc2ccc(-c3ccc(Cl)cc3)cc2)C(O)=C1c1cccc(C(F)(F)F)c1 (mixture of isomers) |  | 0 | 0
N#Cc1ccc(C2=C(O)C(=Cc3ccc(-c4ccc(C(F)(F)F)cc4)cc3)OC2=O)cc1 (mixture of isomers) |  | 0 | 25
O=C1OC(=Cc2ccc(C(F)(F)F)cc2)C(O)=C1c1ccc(F)cc1 (mixture of isomers) [R=H, R1=4-F—C6H4**, R2=4-CF3—C6H4] |  | 0 | 0
O=C1OC(=Cc2ccc(-c3ccc(Cl)cc3)cc2)C(O)=C1c1cccc(Cl)c1 (mixture of isomers) |  | 0 | 0
O=C1OC(=Cc2ccc(Cl)cc2)C(O)=C1c1ccc(C(F)(F)F)cc1 (mixture of isomers) [R=H, R1=4-CF3—C6H4**, R2=4-Cl—C6H4] |  | 100 | 100
